{"source": "patent US20190263799A1", "about": "“1H-IMIDAZO[4,5-B]PYRIDINYL AND 2-OXO-2,3-DIHYDRO-1H-IMIDAZO[4,5-B]PYRIDINYL HETEROCYCLIC BET BROMODOMAIN INHIBITORS” (ZENITH EPIGENETICS LTD., priority 2015, published 2019)", "key": {"MV4-11 cells [1]": {"tested_on": "MV4-11 cells", "test": "Inhibition of cell proliferation in cancer cell lines (MV4-11, CellTiter Aqueous One)", "type": "cell-based", "conditions": "Homo sapiens; MV4-11 cells, 72 h incubation; read-out: Proliferation activity", "experimental": "MV4-11 cells (CRL-9591) were plated at a density of 5×10^4 cells per well in 96 well flat bottom plates and treated with increasing concentrations of test compound or DMSO (0.1%) in IMDM media containing 10% FBS and penicillin/streptomycin. Triplicate wells were used for each concentration and a well containing only media was used as a control. Plates were incubated at 37° C., 5% CO2 for 72 h before adding 20 μL of the CellTiter Aqueous One Solution (Promega) to each well and incubating at 37° C., 5% CO2 for an additional 3-4 h. The absorbance was read at 490 nm in a spectrophotometer and the percentage of cell titer relative to DMSO-treated cells was calculated after correcting for background by subtracting the blank well's signal. IC50 values were calculated using the GraphPad Prism software."}, "MYC": {"tested_on": "MYC", "test": "Durability of MYC expression inhibition after washout in MV4-11 cells", "type": "cell-based", "conditions": "Homo sapiens; MV4-11 cells treated 3 h, washed, harvested 5 h post washout; read-out: IC50 of sustained MYC inhibition at 5 h post washout", "experimental": "(§1) MV4-11 cells were treated for 3 hours after which compounds were removed, cells washed with media 3 times, replaced with media; harvest was performed 5 hours post washout and the expression of MYC and BCL2 was determined.\n(§2) MV4-11 cells (CRL-9591) were plated at a density of 2.5×10^4 cells per well in 96 well U-bottom plates and treated with increasing concentrations of test compound or DMSO (0.1%) in IMDM media containing 10% FBS and penicillin/streptomycin, and incubated for […] 37° C. after which the compounds are removed, replaced with media and cells were harvested at 5 hours post washout. Triplicate wells were used for each concentration. Cells were pelleted by centrifugation and harvested using the mRNA Catcher PLUS kit according to manufacturer's instructions. The eluted mRNA isolated was then used in a one-step quantitative real-time PCR reaction, using components of the RNA UltraSense™ One-Step Kit (Life Technologies) together with Applied Biosystems TaqMan® primer-probes for cMYC and Cyclophilin. Real-time PCR plates were run on a ViiA™7 real time PCR machine (Applied Biosystems), data was analyzed, normalizing the Ct values for MYC and BCL2 to an internal control, prior to determining the fold expression of each sample, relative to the control."}, "MV4-11 cells [2]": {"tested_on": "MV4-11 cells", "test": "Washout proliferation: durability of proliferation inhibition in MV4-11 cells", "type": "cell-based", "conditions": "Homo sapiens; MV4-11 cells treated 16 h, washed, proliferation measured 72 h post washout; read-out: IC50 of inhibition of proliferation after 72 hours of compound removal", "experimental": "FIG. 1 depicts inhibition of proliferation. […] MV4-11 cells were treated for 16 hours after which compounds were removed, cells washed 3 times with media, replaced with media and proliferation was measured at 72 h post washout.\nMV4-11 cells (CRL-9591) were plated at a density of 5×10^4 cells per well in 96 well flat bottom plates and treated with increasing concentrations of compounds or DMSO (0.1%) in IMDM media containing 10% FBS and penicillin/streptomycin. Triplicate wells were used for each concentration and a well containing only media was used as a control. Plates were incubated at 37° C., 5% CO2 for 16 h after which the compounds were removed, replaced with media, and proliferation was measured at 72 hours post washout by adding 100 μL of the Cell Titer Fluor 96 Cell Viability Assay (Promega). After the incubation for 45 min at 37° C. with 5% CO2 fluorescence is read on the Synergy plate reader set at 380-400 nm Ex/505 nm. Percentage of cell viability to DMSO-treated cells was calculated after correcting for background by subtracting the blank well's signal. IC50 values were calculated using the GraphPad Prism software from the dose-dependent inhibition of proliferation."}, "cMYC": {"tested_on": "cMYC", "test": "Inhibition of cMYC expression in cancer cell lines (MV4-11, real-time PCR)", "type": "cell-based", "conditions": "Homo sapiens; MV4-11 cells, 3 h incubation, cMYC mRNA; read-out: Myc activity", "experimental": "MV4-11 cells (CRL-9591) were plated at a density of 2.5×10^4 cells per well in 96 well U-bottom plates and treated with increasing concentrations of test compound or DMSO (0.1%) in IMDM media containing 10% FBS and penicillin/streptomycin, and incubated for 3 h at 37° C. Triplicate wells were used for each concentration. Cells were pelleted by centrifugation and harvested using the mRNA Catcher PLUS kit according to manufacturer's instructions. The eluted mRNA isolated was then used in a one-step quantitative real-time PCR reaction, using components of the RNA UltraSense™ One-Step Kit (Life Technologies) together with Applied Biosystems TaqMan® primer-probes for cMYC and Cyclophilin. Real-time PCR plates were run on a ViiA™7 real time PCR machine (Applied Biosystems), data were analyzed, normalizing the Ct values for cMYC to an internal control, prior to determining the fold expression of each sample, relative to the control."}, "BRD4(1)": {"target": "T1, BRD4(1) (Homo sapiens, UniProt O60885)", "T1 construct": "N-terminally His-tagged bromodomains (BRD4(1) at 20 nM and BRD4(2) at 100 nM); made in house; host or cells: E. coli BL21(DE3)", "test": "Inhibition of tetra-acetylated histone H4 binding to individual BET bromodomains (AlphaScreen)", "conditions": "His-tagged BRD4(1) 20 nM, biotinylated tetra-acetylated histone H4 peptide, 30 min incubation; read-out: FRET activity BRD4(1)", "experimental": "Proteins were cloned and overexpressed with a N-terminal 6×His tag, then purified by nickel affinity followed by size exclusion chromatography. Briefly, E. coli BL21(DE3) cells were transformed with a recombinant expression vector encoding N-terminally Nickel affinity tagged bromodomains from Brd2, Brd3, Brd4. Cell cultures were incubated at 37° C. with shaking to the appropriate density and induced overnight with IPTG. The supernatant of lysed cells was loaded onto Ni-IDA column for purification. Eluted protein was pooled, concentrated and further purified by size exclusion chromatography. Fractions representing monomeric protein were pooled, concentrated, aliquoted, and frozen at −80° C. for use in subsequent experiments.\nBinding of tetra-acetylated histone H4 peptide (Millipore) and BET bromodomains was confirmed by Amplified Luminescent Proximity Homogenous Assay (AlphaScreen). N-terminally His-tagged bromodomains (BRD4(1) at 20 nM and BRD4(2) at 100 nM) and biotinylated tetra-acetylated histone H4 (10-25 nM) were incubated in the presence of nickel chelate acceptor beads and streptavidin donor beads (PerkinAlmer, 6760000K) added to a final concentration of 2 μg/mL under green light in a white 96 well microtiter plate (Greiner). For inhibition assays, serially diluted compounds were added to the reaction mixtures in a 0.1% final concentrations of DMSO. Final buffer concentrations were 50 mM HEPES, 100 mM NaCl and 0.1% BSA buffer, pH 7.4 and optimized to 30 min incubation time. Assay plates were read at 570 nm on a Synergy H4 Plate Reader (Biotek). IC50 values were determined from a dose response curve."}, "BCL2": {"tested_on": "BCL2", "test": "Durability of BCL2 expression inhibition after washout in MV4-11 cells", "type": "cell-based", "conditions": "Homo sapiens; MV4-11 cells treated 3 h, washed, harvested 5 h post washout; read-out: IC50 of BCL2 inhibition at 5 hours post washout", "experimental": "as §1, §2"}}, "data": [{"smiles": "CC(=O)N(C)c1cnc2nc(N3CCCC3)n(Cc3ccccc3)c2c1", "note": "[Example 18, N-(1-Benzyl-2-(pyrrolidin-1-yl)-1H-imidazo[4,5-b]pyridin-6-yl)-N-methylacetamide]", "values": [{"measurement": "IC50", "setting": "MV4-11 cells [1]", "result": "0.3 to 3", "unit": "µM"}, {"measurement": "IC50", "setting": "MYC", "result": 29, "unit": "µM"}, {"measurement": "IC50", "setting": "MV4-11 cells [2]", "result": "~50", "unit": "µM"}, {"measurement": "IC50", "setting": "cMYC", "result": "0.3 to 3", "unit": "µM"}, {"measurement": "IC50", "setting": "BRD4(1)", "result": "≤ 0.3", "unit": "µM"}, {"measurement": "IC50", "setting": "BCL2", "result": "~50", "unit": "µM"}]}]}
